The values that follow come from US20050171057A1, “Pantoprazole cyclodextrin inclusion complexes” (ALTANA PHARMA AG, priority 2002, published 2005).

Values after ≈ are worked out from the molar mass of the structure shown. Read-outs that look alike come from different tables or passages of the source.

A short description of series [1]: Phase-solubility studies of PNTH with β-CD, HPβ-CD and SBβ-CD in phosphate buffer pH 7. The class given is physicochemical. The following applies: for solubility: thermodynamic from solid; for increase of apparent solubility versus phosphate buffer alone: phosphate buffer pH 7. Here is the method: The Solubility of PNTH in Phosphate Buffer Solution at pH 7 was Determined Using a Previously Constructed Asorbance vs. Concentration Calibration Curve.
A known amount of PNTH was suspended in cyclodextrin solutions of different concentrations ranging from; 0 to 1.8% (p/v) for β-CD, 0 to 20% (p/v) for H-Pβ-CD and 0 to 15% (p/v) for SB-β-CD. The resulting suspension was filtered using a PTFE 0.45μ filter, adequately diluted and then subjected to UV spectrophotometric analysis. The concentration of PNTH in the corresponding sample was then calculated referring to the relevant PNTH calibration curve.
UV-VIS spectra were recorded on a Jasco V570 Spectrophoto meter.

Series [2] is described as follows: Complexation (phase solubility) study of pantoprazole with βCD and HPβCD in phosphate buffer pH 7. Type of series: physicochemical. Particulars: in the presence of βCD (up to 1.8% p/v), phosphate buffer pH 7, maximum. Here is the method: Methods: Various solutions of the different cyclodextrins taken into consideration were prepared in phosphate buffer solution pH 7 at known concentrations and used to create saturated solutions of pantoprazole. After equilibration, these saturated solutions were filtered through MF™ membrane filters (pore size 0.45 μm), appropriately diluted with phosphate buffer solution and subjected to uv/vis spectrophotometric analysis. The cyclodextrin solutions prepared with phosphate buffer ranged from concentrations of 0% p/v up to 1.8% p/v for βCD, 20% p/v for HPβCD.

As to `COc1ccnc(C[S+]([O-])c2nc3ccc(OC(F)F)cc3[nH]2)c1OC` (centres unmarked) [pantoprazole, 5-difluoromethoxy-2-[(3,4-dimethoxy-2-pyridinyl)methylsulfinyl]-1H-benzimidazole], the solubility in series [1] (aqueous buffer, phosphate buffer solution pH 7, no cyclodextrin, read-out: solubility in phosphate buffer alone) was determined as 0.56 mM (≈ 215 µg/mL); in series [1] (aqueous with cosolvent or surfactant or cyclodextrin, solutions of HPβ-CD (0 to 20% p/v) in phosphate buffer pH 7, maximum reached, read-out: apparent solubility with HPβ-CD), 17.8 mM (≈ 6820 µg/mL); in series [1] (aqueous with cosolvent or surfactant or cyclodextrin, solutions of SBβ-CD (0 to 15% p/v) in phosphate buffer pH 7, maximum reached, read-out: apparent solubility with SBβ-CD), 9.3 mM (≈ 3570 µg/mL); in series [1] (aqueous with cosolvent or surfactant or cyclodextrin, solutions of β-CD (0 to 1.8% p/v) in phosphate buffer pH 7, maximum reached, read-out: apparent solubility with β-CD), 2.25 mM (≈ 863 µg/mL). Also, the results for the “increase of apparent solubility versus phosphate buffer alone” value in series [1] (solutions of HPβ-CD (0 to 20% p/v)), in series [1] (solutions of SBβ-CD (0 to 15% p/v)) and in series [1] (solutions of β-CD (0 to 1.8% p/v)) were 36 times, “twenty” and “four”, respectively. The “increase of solubility with respect to solubility in phosphate buffer” value in series [2] is given as “four”.
